{"source": "patent US7589087B2", "about": "(Janssen Pharmaceutica, N.V., priority 2006, dated 2009)", "note": "Counter-ions that a name gives are not always drawn."}
{"biological_target": "T1, human histamine H4 receptor (Homo sapiens, UniProt Q9H3N8)", "T1 construct": "expressed in transfected cells; host or cells: SK-N-MC cells or COS7 cells, transiently transfected; membranes prepared", "T1 sequence (Q9H3N8 whole entry)": "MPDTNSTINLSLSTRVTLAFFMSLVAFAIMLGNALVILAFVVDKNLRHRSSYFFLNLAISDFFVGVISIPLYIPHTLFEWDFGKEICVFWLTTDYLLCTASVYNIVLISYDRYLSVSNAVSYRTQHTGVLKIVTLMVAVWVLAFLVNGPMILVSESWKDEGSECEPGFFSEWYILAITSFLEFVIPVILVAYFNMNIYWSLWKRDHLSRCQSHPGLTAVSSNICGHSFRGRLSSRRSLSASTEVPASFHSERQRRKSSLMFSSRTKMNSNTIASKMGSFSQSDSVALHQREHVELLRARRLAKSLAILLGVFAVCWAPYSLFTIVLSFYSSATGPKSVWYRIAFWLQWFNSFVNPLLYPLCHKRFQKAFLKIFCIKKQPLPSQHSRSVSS", "experiment": "Binding Assay on Recombinant Human Histamine H4 Receptor (3H-histamine competition, membranes of transfected SK-N-MC or COS7 cells); further: ligand 5 nM", "procedure": "SK-N-MC cells or COS7 cells were transiently transfected with pH4R and grown in 150 cm^2 tissue culture dishes. Cells were washed with saline solution, scraped with a cell scraper and collected by centrifugation (1000 rpm, 5 min). Cell membranes were prepared by homogenization of the cell pellet in 20 mM Tris-HCl with a polytron tissue homogenizer for 10 sec at high speed. Homogenate was centrifuged at 1000 rpm for 5 min at 4° C. The supernatant was then collected and centrifuged at 20,000×g for 25 min at 4° C. The final pellet was resuspended in 50 mM Tris-HCl. […] Incubation occurred at room temperature for 45 min. Membranes were harvested by rapid filtration over Whatman GF/C filters and washed 4 times with ice-cold 50 mM Tris HCl. Filters were then dried, mixed with scintillant and counted for radioactivity.", "units": {"Ki": "nM"}}
{"compound": "Cc1c(F)ccc2[nH]c(-c3ccc(NCCCC4CCN(C)CC4)nc3)nc12", "note": "[Example 5, [5-(5-Fluoro-4-methyl-1H-benzoimidazol-2-yl)-pyridin-2-yl]-[3-(1-methyl-piperidin-4-yl)-propyl]-amine]", "Ki": 33}
{"compound": "COC(=O)c1ccc2[nH]c(-c3ccc(NCCCC4CCN(C)CC4)nc3)nc2c1", "note": "[Example 8, 2-{6-[3-(1-Methyl-piperidin-4-yl)-propylamino]-pyridin-3-yl}-1H-benzoimidazole-5-carboxylic acid methyl ester]", "Ki": 1590}
{"compound": "Cc1c(F)ccc2[nH]c(-c3ccc(NCCCN4CCN(C)CC4)nc3)nc12", "note": "[Example 10, [5-(5-Fluoro-4-methyl-1H-benzoimidazol-2-yl)-pyridin-2-yl]-[3-(4-methyl-piperazin-1-yl)-propyl]-amine]", "Ki": 930}
{"compound": "CN1CCC(CCCN(C)c2ccc(-c3nc4c(F)c(F)ccc4[nH]3)cn2)CC1", "note": "[Example 28, [5-(4,5-Difluoro-1H-benzoimidazol-2-yl)-pyridin-2-yl]-methyl-[3-(1-methyl-piperidin-4-yl)-propyl]-amine]", "Ki": 37}
{"compound": "COC(=O)c1ccc2[nH]c(-c3ccc(N(C)CCCC4CCN(C)CC4)nc3)nc2c1", "note": "[Example 22, 2-(6-{Methyl-[3-(1-methyl-piperidin-4-yl)-propyl]-amino}-pyridin-3-yl)-1H-benzoimidazole-5-carboxylic acid methyl ester]", "Ki": 420}
{"compound": "Cc1ccc2[nH]c(-c3ccc(N(C)CCCC4CCN(C)CC4)nc3)nc2c1C", "note": "[Example 27, [5-(4,5-Dimethyl-1H-benzoimidazol-2-yl)-pyridin-2-yl]-methyl-[3-(1-methyl-piperidin-4-yl)-propyl]-amine]", "Ki": 72}
{"compound": "Cc1cc(C)c2nc(-c3ccnc(NC(=O)CCCC4CCN(C)CC4)c3)[nH]c2c1", "note": "[Example 21, N-[4-(4,6-Dimethyl-1H-benzoimidazol-2-yl)-pyridin-2-yl]-4-(1-methyl-piperidin-4-yl)-butyramide]", "Ki": 290}
{"compound": "Cc1c(F)ccc2[nH]c(-c3ccc(N(CCCC4CCN(C)CC4)C(C)C)nc3)nc12", "note": "[Example 13, [5-(5-Fluoro-4-methyl-1H-benzoimidazol-2-yl)-pyridin-2-yl]-isopropyl-[3-(1-methyl-piperidin-4-yl)-propyl]-amine]", "Ki": 730}
{"compound": "CN1CCC(CCCNc2ccc(-c3nc4cc(C(C)(C)C)ccc4[nH]3)cn2)CC1", "note": "[Example 4, [5-(5-tert-Butyl-1H-benzoimidazol-2-yl)-pyridin-2-yl]-[3-(1-methyl-piperidin-4-yl)-propyl]-amine]", "Ki": 9}
{"compound": "Cc1cc(-c2nc3c(C)c(F)ccc3[nH]2)cnc1NCCCC1CCN(C)CC1", "note": "[Example 11, [5-(5-Fluoro-4-methyl-1H-benzoimidazol-2-yl)-3-methyl-pyridin-2-yl]-[3-(1-methyl-piperidin-4-yl)-propyl]-amine]", "Ki": 22}
{"compound": "CN1CCC(CCCC(=O)Nc2cc(-c3nc4cc(Cl)ccc4[nH]3)ccn2)CC1", "note": "[Example 36, N-[4-(5-Chloro-1H-benzoimidazol-2-yl)-pyridin-2-yl]-4-(1-methyl-piperidin-4-yl)-butyramide]", "Ki": 660}
{"compound": "Cc1cc(Cl)cc2[nH]c(-c3ccc(NCCCC4CCN(C)CC4)nc3)nc12", "note": "[Example 6, [5-(6-Chloro-4-methyl-1H-benzoimidazol-2-yl)-pyridin-2-yl]-[3-(1-methyl-piperidin-4-yl)-propyl]-amine]", "Ki": 16}
{"compound": "Cc1cc(-c2nc3c(F)c(F)ccc3[nH]2)cnc1NCCCC1CCN(C)CC1", "note": "[Example 12, [5-(4,5-Difluoro-1H-benzoimidazol-2-yl)-3-methyl-pyridin-2-yl]-[3-(1-methyl-piperidin-4-yl)-propyl]-amine]", "Ki": 78}
{"compound": "Cc1cccc2[nH]c(-c3ccnc(NCCCCC4CCN(C)CC4)c3)nc12", "note": "[Example 15, [4-(4-Methyl-1H-benzoimidazol-2-yl)-pyridin-2-yl]-[4-(1-methyl-piperidin-4-yl)-butyl]-amine]", "Ki": 1}
{"compound": "CN1CCC(CCCNc2ccc(-c3nc4cc(C(=O)c5ccccc5)ccc4[nH]3)cn2)CC1", "note": "[Example 30, (2-{6-[3-(1-Methyl-piperidin-4-yl)-propylamino]-pyridin-3-yl}-1H-benzoimidazol-5-yl)-phenyl-methanone]", "Ki": 520}
{"compound": "Cc1cc(Cl)cc2[nH]c(-c3ccnc(NCCCCC4CCN(C)CC4)c3)nc12", "note": "[Example 17, [4-(6-Chloro-4-methyl-1H-benzoimidazol-2-yl)-pyridin-2-yl]-[4-(1-methyl-piperidin-4-yl)-butyl]-amine]", "Ki": 8}
{"compound": "Cc1c(F)ccc2[nH]c(-c3ccc(N(C)CCCC4CCN(C)CC4)nc3)nc12", "note": "[Example 2, [5-(5-Fluoro-4-methyl-1H-benzoimidazol-2-yl)-pyridin-2-yl]-methyl-[3-(1-methyl-piperidin-4-yl)-propyl]-amine]", "Ki": 15}
{"compound": "Cc1cc(C)c2nc(-c3ccc(N(C)CCCC4CCN(C)CC4)nc3)[nH]c2c1", "note": "[Example 1, [5-(4,6-Dimethyl-1H-benzoimidazol-2-yl)-pyridin-2-yl]-methyl-[3-(1-methyl-piperidin-4-yl)-propyl]-amine]", "Ki": 12}
{"compound": "CN1CCC(CCCNc2ccc(-c3nc4cc(Cl)ccc4[nH]3)cn2)CC1", "note": "[Example 3, [5-(5-Chloro-1H-benzoimidazol-2-yl)-pyridin-2-yl]-[3-(1-methyl-piperidin-4-yl)-propyl]-amine]", "Ki": 6}
{"compound": "Cc1c(F)ccc2[nH]c(-c3ccnc(NCCCCN4CCCN(C)CC4)c3)nc12", "note": "[Example 19, [4-(5-Fluoro-4-methyl-1H-benzoimidazol-2-yl)-pyridin-2-yl]-[4-(4-methyl-[1,4]diazepan-1-yl)-butyl]-amine]", "Ki": 5}
{"compound": "CN1CCC(CCCNc2ccc(-c3nc4c(F)c(F)ccc4[nH]3)cn2)CC1", "note": "[Example 29, [5-(4,5-Difluoro-1H-benzoimidazol-2-yl)-pyridin-2-yl]-[3-(1-methyl-piperidin-4-yl)-propyl]-amine]", "Ki": 89}
{"compound": "Cc1cc(C)c2nc(-c3ccnc(NCCCCC4CCN(C)CC4)c3)[nH]c2c1", "note": "[Example 18, [4-(4,6-Dimethyl-1H-benzoimidazol-2-yl)-pyridin-2-yl]-[4-(1-methyl-piperidin-4-yl)-butyl]-amine]", "Ki": 2}
{"compound": "CN1CCC(CCCNc2ccc(-c3nc4c(Cl)cccc4[nH]3)cn2)CC1", "note": "[Example 31, [5-(4-Chloro-1H-benzoimidazol-2-yl)-pyridin-2-yl]-[3-(1-methyl-piperidin-4-yl)-propyl]-amine]", "Ki": 2670}
{"compound": "Cc1cc(C)c2nc(-c3ccc(NCCCC4CCN(C)CC4)nc3)[nH]c2c1", "note": "[Example 24, [5-(4,6-Dimethyl-1H-benzoimidazol-2-yl)-pyridin-2-yl]-[3-(1-methyl-piperidin-4-yl)-propyl]-amine]", "Ki": 23}
{"compound": "Cc1cc(Cl)cc2[nH]c(-c3ccc(NCCCN4CCN(C)CC4)nc3)nc12", "note": "[Example 9, [5-(6-Chloro-4-methyl-1H-benzoimidazol-2-yl)-pyridin-2-yl]-[3-(4-methyl-piperazin-1-yl)-propyl]-amine]", "Ki": 350}
{"compound": "CN1CCC(CCCNc2ccc(-c3nc4cc(Cl)c(F)cc4[nH]3)cn2)CC1", "note": "[Example 26, [5-(5-Chloro-6-fluoro-1H-benzoimidazol-2-yl)-pyridin-2-yl]-[3-(1-methyl-piperidin-4-yl)-propyl]-amine]", "Ki": 13}
{"compound": "Cc1cccc2[nH]c(-c3ccnc(NC(=O)CCCC4CCN(C)CC4)c3)nc12", "note": "[Example 38, N-[4-(4-Methyl-1H-benzoimidazol-2-yl)-pyridin-2-yl]-4-(1-methyl-piperidin-4-yl)-butyramide]", "Ki": 3330}
{"compound": "Cc1cc(C)c2nc(-c3ccnc(N(C)CCCCC4CCN(C)CC4)c3)[nH]c2c1", "note": "[Example 14, [4-(4,6-Dimethyl-1H-benzoimidazol-2-yl)-pyridin-2-yl]-methyl-[4-(1-methyl-piperidin-4-yl)-butyl]-amine hydrochloride salt]", "Ki": 40}
{"compound": "Cc1ccc2[nH]c(-c3ccc(N(CCCC4CCN(C)CC4)C(C)C)nc3)nc2c1C", "note": "[Example 37, [5-(4,5-Dimethyl-1H-benzoimidazol-2-yl)-pyridin-2-yl]-isopropyl-[3-(1-methyl-piperidin-4-yl)-propyl]-amine]", "Ki": 3470}
{"compound": "COc1ccc2[nH]c(-c3ccc(NCCCC4CCN(C)CC4)nc3)nc2c1", "note": "[Example 7, [5-(5-Methoxy-1H-benzoimidazol-2-yl)-pyridin-2-yl]-[3-(1-methyl-piperidin-4-yl)-propyl]-amine]", "Ki": 500}
{"compound": "Cc1c(F)ccc2[nH]c(-c3ccnc(NCCCCC4CCN(C)CC4)c3)nc12", "note": "[Example 16, [4-(5-Fluoro-4-methyl-1H-benzoimidzol-2-yl)-pyridin-2-yl]-[4-(1-methyl-piperidin-4-yl)-butyl]-amine]", "Ki": 2}
{"compound": "Cc1ccc2[nH]c(-c3ccc(NCCCC4CCN(C)CC4)nc3)nc2c1C", "note": "[Example 25, [5-(4,5-Dimethyl-1H-benzoimidazol-2-yl)-pyridin-2-yl]-[3-(1-methyl-piperidin-4-yl)-propyl]-amine]", "Ki": 58}
{"compound": "Cc1cc(C)c2nc(-c3ccc(NCCCN4CCN(C)CC4)nc3)[nH]c2c1", "note": "[Example 33, [5-(4,6-Dimethyl-1H-benzoimidazol-2-yl)-pyridin-2-yl]-[3-(4-methyl-piperazin-1-yl)-propyl]-amine]", "Ki": 680}
{"compound": "CC(C)N(CCCN1CCN(C)CC1)c1ccc(-c2nc3cc(Cl)ccc3[nH]2)cn1", "note": "[Example 34, [5-(5-Chloro-1H-benzoimidazol-2-yl)-pyridin-2-yl]-isopropyl-[3-(4-methyl-piperazin-1-yl)-propyl]-amine]", "Ki": 570}
{"compound": "Cc1ccc2[nH]c(-c3ccnc(NC(=O)CCCC4CCN(C)CC4)c3)nc2c1C", "note": "[Example 35, N-[4-(4,5-Dimethyl-1H-benzoimidazol-2-yl)-pyridin-2-yl]-4-(1-methyl-piperidin-4-yl)-butyramide]", "Ki": 470}
